Measured values as given in PubChem BioAssay AID2027 (NMMLSC, 2009).

The compounds below were run against Ras-related C3 botulinum toxin substrate 1 (Homo sapiens) (UniProt P63000) (assay: analog inhibition of wildtype Rac1 nucleotide binding – biochemical, oxadiazole analogs, multiplex bead flow cytometry, SAR follow-up (AID 2027)). Details: GST-Rac1 beads, Bodipy-FL-GTP binding, Ki calculated from EC50.

SMILES	Ki
Cc1ccc(C)c(N2CCN(C(=O)CCc3nc(-c4ccc(F)cc4)no3)CC2)c1	0.12 µM
COc1ccc(-c2noc(CCC(=O)N3CCN(c4ccccc4C(F)(F)F)CC3)n2)cc1	0.16 µM
COc1ccc(-c2noc(CC(=O)N3CCN(c4cc(C)ccc4C)CC3)n2)cc1	0.7 µM
COc1ccc(-c2noc(CCCC(=O)N3CCN(c4cc(C)ccc4C)CC3)n2)cc1	0.35 µM
Cc1ccc(C)c(N2CCN(C(=O)CCc3nc(-c4ccccc4C)no3)CC2)c1	0.16 µM
Cc1ccc(C)c(N2CCN(C(=O)CCc3nc(-c4ccccc4F)no3)CC2)c1	0.17 µM
COc1ccccc1-c1noc(CCC(=O)N2CCN(c3cc(C)ccc3C)CC2)n1	1.41 µM
Cc1ccc(C)c(N2CCN(C(=O)CCc3nc(-c4ccccc4C(F)(F)F)no3)CC2)c1	0.2 µM
Cc1ccc(-c2noc(CCC(=O)N3CCN(c4cc(C)ccc4C)CC3)n2)cc1	0.3 µM
COc1ccc(-c2noc(CCC(=O)N3CCN(c4ccc(F)cc4)CC3)n2)cc1	0.15 µM
COc1ccc(-c2noc(CCC(=O)N3CCN(c4ccccc4Cl)CC3)n2)cc1	0.31 µM
Cc1ccc(C)c(N2CCN(C(=O)CCc3nc(-c4cccc(Br)c4)no3)CC2)c1	0.16 µM
Cc1ccc(C)c(N2CCN(C(=O)CCc3nc(-c4ccc(Cl)cc4)no3)CC2)c1	0.17 µM
COc1ccc(-c2noc(CCCCC(=O)N3CCN(c4cc(C)ccc4C)CC3)n2)cc1	1.96 µM
COc1ccc(-c2noc(CCC(=O)N3CCN(c4ccccc4F)CC3)n2)cc1	0.1 µM
Cc1ccc(C)c(N2CCN(C(=O)CCc3nc(-c4ccccc4)no3)CC2)c1	0.15 µM
Cc1ccc(C)c(N2CCN(C(=O)CCc3nc(-c4ccccc4Br)no3)CC2)c1	0.16 µM
Cc1ccc(C)c(N2CCN(C(=O)CCc3nc(-c4ccccc4Cl)no3)CC2)c1	0.11 µM

SMILES	Ki
COc1ccc(-c2noc(CCC(=O)N3CCN(c4cc(C)ccc4C)CC3)n2)cc1	0.47 µM
Cc1ccc(C)c(N2CCN(C(=O)CCc3nc(-c4cccc(F)c4)no3)CC2)c1	0.14 µM
Cc1ccc(C)c(N2CCN(C(=O)CCc3nc(-c4cccc(C(F)(F)F)c4)no3)CC2)c1	0.23 µM
COc1ccc(-c2coc(CCC(=O)N3CCN(c4cc(C)ccc4C)CC3)n2)cc1	0.21 µM
COc1ccc(-c2noc(CCC(=O)N3CCN(c4ccc(Br)cc4)CC3)n2)cc1	0.02 µM
Cc1cccc(-c2noc(CCC(=O)N3CCN(c4cc(C)ccc4C)CC3)n2)c1	0.11 µM
COc1cccc(-c2noc(CCC(=O)N3CCN(c4cc(C)ccc4C)CC3)n2)c1	0.57 µM
COc1ccc(-c2noc(CCC(=O)N3CCN(c4ccc(C)cc4)CC3)n2)cc1	0.25 µM
COc1ccc(-c2noc(CCC(=O)N3CCN(c4ccccc4OC)CC3)n2)cc1	0.21 µM
Cc1ccc(C)c(N2CCN(C(=O)CCc3nc(-c4cccc(Cl)c4)no3)CC2)c1	0.46 µM
Cc1ccc(C)c(N2CCN(C(=O)CCc3nc(-c4ccc(C(F)(F)F)cc4)no3)CC2)c1	0.2 µM
COc1ccc(-c2noc(CCC(=O)N3CCN(c4ccccc4C)CC3)n2)cc1	0.13 µM
Cc1ccc(C)c(N2CCN(C(=O)CCc3nc(-c4ccc(N(C)C)cc4)no3)CC2)c1	0.26 µM
COc1ccc(-c2noc(CCC(=O)N3CCN(c4ccccc4Br)CC3)n2)cc1	0.16 µM
COc1ccc(-c2noc(CCC(=O)N3CCC(c4cc(C)ccc4C)CC3)n2)cc1	0.11 µM
COc1ccc(-c2noc(CCC(=O)N3CCN(c4ccc(OC)cc4)CC3)n2)cc1	0.05 µM
Cc1ccc(C)c(N2CCN(C(=O)CCc3nc(-c4ccc(Br)cc4)no3)CC2)c1	0.28 µM
COc1ccc(-c2noc(CCC(=O)N3CCN(c4cccc(C)c4C)CC3)n2)cc1	0.12 µM
